Experimental data published in patent US20220412975A1, “CHARACTERIZING MODULATORS OF ADAMTS-7 AND ADAMTS-12” (The Broad Institute, Inc., priority 2019, published 2022).
pIC50: −log10 of the molar value.

How the values were obtained:
ADAMTS-4 = target: T1, ADAMTS-4 (Homo sapiens, UniProt O75173); assay: Selectivity FRET assay ADAMTS4; format: biochemical; conditions: ADAMTS4 50 nM, Dabcyl-[…]-Glu(Edans)-NH2 1 μM, 120 min, 32° C.
T1 construct: purchased R&D 4307-AD
T1 sequence (O75173 213-837): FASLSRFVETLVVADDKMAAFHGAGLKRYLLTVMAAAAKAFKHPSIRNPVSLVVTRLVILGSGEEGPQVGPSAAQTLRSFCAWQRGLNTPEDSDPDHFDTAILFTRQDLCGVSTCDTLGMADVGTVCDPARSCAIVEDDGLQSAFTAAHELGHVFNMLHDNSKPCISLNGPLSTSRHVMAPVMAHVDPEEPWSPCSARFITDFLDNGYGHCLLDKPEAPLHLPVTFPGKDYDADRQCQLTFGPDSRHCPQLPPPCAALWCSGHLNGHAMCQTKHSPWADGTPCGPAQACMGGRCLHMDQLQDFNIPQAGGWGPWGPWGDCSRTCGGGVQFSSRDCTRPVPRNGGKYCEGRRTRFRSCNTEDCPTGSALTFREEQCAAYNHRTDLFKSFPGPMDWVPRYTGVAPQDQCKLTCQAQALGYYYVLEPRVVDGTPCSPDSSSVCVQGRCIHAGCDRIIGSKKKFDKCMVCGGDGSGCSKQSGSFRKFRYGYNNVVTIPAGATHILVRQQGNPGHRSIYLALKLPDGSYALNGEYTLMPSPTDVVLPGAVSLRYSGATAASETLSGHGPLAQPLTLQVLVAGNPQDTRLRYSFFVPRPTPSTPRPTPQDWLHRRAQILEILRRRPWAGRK
Method: The respective enzyme (see Table 4 below) was diluted in reaction buffer (50 mM Tris, 2.5 μM ZnCl2, 0.05% BSA, 0.001% Brij, pH 7.5 for ADAM17; 50 mM Tris 7.5, 150 mM NaCl, 10 mM CaCl2, 0.05% Brij for all other enzymes) to the respective concentration and 25 μl were transferred into each well of a 384-well white microtiter plate (Greiner Bio One 781075). 1 μl test compound solution (dissolved in DMSO, at the corresponding concentration) or pure DMSO as a control was added per well. The enzymatic reaction was initiated by addition of 25 μl of the respective concentration of the respective FRET substrate (see Table 4 below) in reaction buffer. The microtiter plate was incubated for 120 min at the temperature of 32° C. The increase of fluorescence intensity was measured in appropriate fluorescence plate reader (e.g. TECAN Ultra) using the respective wavelengths for excitation and emission. IC50 values were calculated from percentage of inhibition of enzyme activity as a function of test compound concentration.
Table 4. Assay conditions for the evaluation of the selectivity of ADAMTS-7 modulators. Abbreviations: Dabcyl: 4-((4-(dimethylamino)phenyl)azo)benzoic acid; Glu(Edans): L-glutamic acid-γ-[2-(1-sulfonyl-5-naphthyl)-aminoethylamide]; Mca: (7-Methoxycoumarin-4-yl)acetyl; Dap(Dnp): (2S)-3-(2,4-dinitroanilino)-2-(9H-fluoren-9-ylmethoxycarbonylamino)propanoic acid; Dpa: N-3-(2, 4-Dinitrophenyl)-L-2,3-diaminopropionyl.
(§1) The assays to determine the IC50 for ADAMTS inhibition were performed as described earlier herein.

ADAMTS-7 = target: T2, ADAMTS-7 (Homo sapiens, UniProt Q9UKP4, A119V/A123T/A127T/A171V/A193G/A200T/A28V/A36P/A42G/A66V/A78S/A97T/D77A/DEL186-188/DEL228-233/E133D/E190K/E213K/E83Q/G114S/G115N/G117S/G196D/G27H/H100Y/H124S/H234Q/K153R/L143F/L192S/L20I/P189H/P201S/P29L/P33S/P79S/Q99P/R118N/R122Q/R174Q/R195Q/R215Q/R218H/R35L/R75A/R76Q/R87Q/R92L/S170E/S199R/S202G/S214H/T110I/T125V/V182M/V208G/V74A/W225K/Y209S); assay: ADAMTS-7 enzymatic activity FRET assay, testing of inhibitory compounds; format: biochemical
T2 construct: rat ADAMTS-7 signal peptide + prodomain (rat 1-217), fusion partner (N); 2xStrep tag (C); 6xHis tag (C); made in house; host or cells: Expi293 cells
Method: Purified recombinant ADAMTS-7 (as of SEQ ID NO: 1 or SEQ ID NO: 2) was diluted in reaction buffer (20 mM HEPES pH 8.0, 150 mM NaCl, 5 mM CaCl2, 0.004% Brij, 10 μM ZnCl2) for a concentration of approximately 20 nM. 25 μl of the solution were transferred into each well of a 384-well white microtiter plate (Greiner Bio-One 781075) and 1 μl test compound solution (modulator/inhibitor dissolved in DMSO, at the corresponding concentration) or pure DMSO as a control were added per well. […] Amino acids […] are derived from Thrombospondin-1 sequence (275-289). An additional carboxyl glutamic acid was added after the QXL520 quencher to increase substrate solubility. The microtiter plate was incubated for 120 min at the temperature of 32° C. The increase of fluorescence intensity was measured in appropriate fluorescence plate reader (e.g. TECAN Ultra) using excitation wavelength of 485 nm and emission wavelength of 520 nm. IC50 values were calculated from percentage of inhibition of ADAMTS-7 activity as a function of test compound concentration. IC50 values derived using functional ADAMTS-7 according to SEQ ID NO: 1 or SEQ ID NO: 2, respectively, were not distinguishable, both laying within the experimental error.
as §1

T2 sequence (Q9UKP4 with tags, fused parts or gaps with the stated changes): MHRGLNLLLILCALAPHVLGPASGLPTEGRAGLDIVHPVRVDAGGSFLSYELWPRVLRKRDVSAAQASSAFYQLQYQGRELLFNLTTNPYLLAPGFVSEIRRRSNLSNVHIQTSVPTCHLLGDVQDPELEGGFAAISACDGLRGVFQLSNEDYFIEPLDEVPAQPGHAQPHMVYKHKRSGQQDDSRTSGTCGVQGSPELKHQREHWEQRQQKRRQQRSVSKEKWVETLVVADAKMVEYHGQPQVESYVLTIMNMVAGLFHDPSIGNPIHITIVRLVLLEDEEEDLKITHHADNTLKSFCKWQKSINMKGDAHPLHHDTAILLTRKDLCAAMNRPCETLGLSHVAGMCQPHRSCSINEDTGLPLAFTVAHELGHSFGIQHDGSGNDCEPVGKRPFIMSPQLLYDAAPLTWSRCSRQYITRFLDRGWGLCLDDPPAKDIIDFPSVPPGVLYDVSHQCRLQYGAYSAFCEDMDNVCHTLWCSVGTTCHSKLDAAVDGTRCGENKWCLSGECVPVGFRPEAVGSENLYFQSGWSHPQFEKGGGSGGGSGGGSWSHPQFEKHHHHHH

Structure (SMILES)	pIC50 (ADAMTS-4)	pIC50 (ADAMTS-7)
O=C1NC(=O)[C@](CNC(=O)c2cnn(-c3cnccn3)n2)(C2CC2)N1 [Example 12.2, N-{[(4R)-4-cyclopropyl-2,5-dioxoimidazolidin-4-yl]methyl}-2-(pyrazin-2-yl)-2H-1,2,3-triazole-4-carboxamide]	4.62	6.45
Cn1cc(-c2cc(C(=O)NC[C@@]3(C4CC4)NC(=O)NC3=O)on2)cn1 [Example 12.5, N-{[(4R)-4-cyclopropyl-2,5-dioxoimidazolidin-4-yl]methyl}-3-(1-methyl-1H-pyrazol-4-yl)-1,2-oxazole-5-carboxamide]	5.33	7.28
O=C1NC(=O)[C@](CNC(=O)c2cnn(-c3ccc(F)cn3)n2)(C2CC2)N1 [Example 12.1, N-{[(4R)-4-cyclopropyl-2,5-dioxoimidazolidin-4-yl]methyl}-2-(5-fluoropyridin-2-yl)-2H-1,2,3-triazole-4-carboxamide]	5.32	6.85
